These are literature values, as cited in US7098367B2, “Process for the preparation of alkylene glycols” (Saudi Basic Industries Corporation, priority 2004, dated 2006).

For the data set the following is noted: value may be measured experimentally, taken from references or estimated.
Usually pKa stands for the pH at which an ionisable group is half protonated. Turning to `NCCN` [Example 1, Ethylenediamine (EDA)], the pKa is 9.95.
On to `CN(C)CCN(C)C` [Example 12, Tetramethylethylenediamine (TMEDA)], for which the pKa is on record as 10.72.
With `NC(=O)NC12CC3CC(CC(C3)C1)C2` [Comparative 3, N-(1-adamantyl)urea, reference compound], the pKa is on record as 0.18.
As for `CN(C)c1ccccc1` [Comparative 1, Dimethylaniline, reference compound], the pKa is given as 5.07.
With `C1CN2CCN1CC2` [Example 5, 1,4-diazabicyclo[2,2,2]octane (DABCO)], the pKa was 8.82.
As for `C1CCCNCC1` [Example 3, Hexamethyleneimine], the pKa is listed as 10.
